The source of these data is patent USRE49735E1 (BRISTOL-MYERS SQUIBB COMPANY, priority 2010, dated 2023).

Molecules are shown by their SMILES. Where “and” joins values, the source holds several entries; their conditions need not be identical. Equal values may be shown once.

In this test the target is human mGluR5A (Homo sapiens, UniProt P41594). The experiment in a line: mGluR5 FLIPR Assay. Type of test: cell-based. As to conditions: positive modulator activity; HEK293 (ZF) cells with human mGluR5A and rat GLAST; Ca++ response to ~EC10 glutamate.
Sequence of human mGluR5A (P41594 21-1180 isoform P41594-2): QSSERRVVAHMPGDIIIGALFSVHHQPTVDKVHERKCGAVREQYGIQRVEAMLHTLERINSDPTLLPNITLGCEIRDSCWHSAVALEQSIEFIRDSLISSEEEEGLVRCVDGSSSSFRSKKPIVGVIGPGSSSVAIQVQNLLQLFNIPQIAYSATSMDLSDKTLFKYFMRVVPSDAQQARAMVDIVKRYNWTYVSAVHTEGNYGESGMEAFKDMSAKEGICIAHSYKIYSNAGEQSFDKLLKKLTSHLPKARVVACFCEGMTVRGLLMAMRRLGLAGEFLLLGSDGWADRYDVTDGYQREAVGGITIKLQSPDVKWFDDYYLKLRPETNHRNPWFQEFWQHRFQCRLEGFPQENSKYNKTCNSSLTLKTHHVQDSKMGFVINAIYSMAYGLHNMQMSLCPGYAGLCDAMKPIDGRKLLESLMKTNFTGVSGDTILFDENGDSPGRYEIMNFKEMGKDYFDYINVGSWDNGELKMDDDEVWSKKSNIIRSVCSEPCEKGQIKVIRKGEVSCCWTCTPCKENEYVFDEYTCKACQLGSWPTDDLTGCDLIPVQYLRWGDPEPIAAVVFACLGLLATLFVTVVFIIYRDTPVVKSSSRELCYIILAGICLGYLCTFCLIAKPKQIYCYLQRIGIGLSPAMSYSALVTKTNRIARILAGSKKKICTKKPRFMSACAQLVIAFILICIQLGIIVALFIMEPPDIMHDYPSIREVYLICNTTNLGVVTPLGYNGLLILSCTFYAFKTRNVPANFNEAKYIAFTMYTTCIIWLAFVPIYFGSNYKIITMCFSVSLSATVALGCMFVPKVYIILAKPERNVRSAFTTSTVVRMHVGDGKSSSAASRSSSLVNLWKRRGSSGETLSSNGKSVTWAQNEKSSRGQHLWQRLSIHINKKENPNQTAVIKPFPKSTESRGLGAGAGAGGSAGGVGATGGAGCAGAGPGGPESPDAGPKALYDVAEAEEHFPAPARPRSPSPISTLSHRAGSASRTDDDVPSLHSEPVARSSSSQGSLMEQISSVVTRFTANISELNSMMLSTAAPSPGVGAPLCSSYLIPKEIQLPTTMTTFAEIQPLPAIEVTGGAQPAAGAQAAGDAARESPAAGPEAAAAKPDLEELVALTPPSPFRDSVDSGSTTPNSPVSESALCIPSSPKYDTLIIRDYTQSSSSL
Turning to `O=C1N[C@H](c2cc(C#Cc3ccc4nccnc4c3)cnc2F)[C@@H](c2ccc(F)cc2)O1` [Example 154, (4R,5R)-4-(2-fluoro-5-(quinoxalin-6-ylethynyl)pyridin-3-yl)-5-(4-fluorophenyl)oxazolidin-2-one], the EC50 (usually the concentration at which the effect is half-maximal) is greater than 1000 nM.

`O=C1N[C@H](c2cc(C#Cc3cncc(C4CC4)c3)cnc2F)[C@@H](c2ccc(F)cc2)O1` [Example 155, (4R,5R)-4-(5-((5-Cyclopropylpyridin-3-yl)ethynyl)-2-fluoropyridin-3-yl)-5-(4-fluorophenyl)oxazolidin-2-one] registered an EC50 greater than 1000 nM.

On to `O=C1N[C@H](c2cc(C#Cc3ccccn3)cnc2F)[C@@H](c2ccc(F)cc2)O1` [Example 156, (4R,5R)-4-(2-Fluoro-5-(pyridin-2-ylethynyl)pyridin-3-yl)-5-(4-fluorophenyl)oxazolidin-2-one], for which the EC50 was less than 100 nM. Compound `O=C1N[C@H](c2cc(C#Cc3cccc(F)n3)cnc2F)[C@@H](c2ccc(F)cc2)O1` [Example 157, (4R,5R)-4-(2-Fluoro-5-((6-fluoropyridin-2-yl)ethynyl)pyridin-3-yl)-5-(4-fluorophenyl)oxazolidin-2-one] came in with an EC50 of less than 100 nM.

Compound `O=C1N[C@H](c2cccc(C#Cc3ccccc3)c2)[C@@H](c2nc(-c3ccccc3)no2)O1` [Example 158] displayed a concentration for a half-maximal effect (EC50) greater than 30000 nM.

The compound `O=C1N[C@@H](c2cccc(C#Cc3ccccc3)c2)[C@H](c2nc(-c3ccccc3)no2)O1` [Example 159] had a half-maximal effective concentration (EC50) greater than 1000 nM. As to `O=C1N[C@H](c2cccc(C#Cc3ccccc3)c2)[C@@H](c2nc(-c3ccncc3)no2)O1` [Example 160], the EC50 was greater than 1000 nM. In turn, `O=C1N[C@@H](c2cccc(C#Cc3ccccc3)c2)[C@H](c2nc(-c3ccncc3)no2)O1` [Example 161] had an EC50 greater than 1000 nM. The compound `O=C1N[C@H](c2cccc(C#Cc3ccccc3)c2)[C@@H](c2nc(-c3ccccn3)no2)O1` [Example 162] yielded an EC50 greater than 1000 nM. The result for `O=C1N[C@@H](c2cccc(C#Cc3ccccc3)c2)[C@H](c2nc(-c3ccccn3)no2)O1` [Example 163] reads greater than 1000 nM. Take `O=C1N[C@H](c2cccc(C#Cc3ccccc3)c2)[C@@H](c2nc(-c3cccnc3)no2)O1` [Example 164]: the EC50 was greater than 1000 nM. Regarding `O=C1N[C@@H](c2cccc(C#Cc3ccccc3)c2)[C@H](c2nc(-c3cccnc3)no2)O1` [Example 165], the 50% effective concentration (EC50) is greater than 1000 nM. Consider `Cc1noc([C@H]2OC(=O)N[C@@H]2c2cccc(C#Cc3ccccc3)c2)n1` [Example 166], for which the EC50 is greater than 1000 nM. In turn, `Cc1noc([C@@H]2OC(=O)N[C@H]2c2cccc(C#Cc3ccccc3)c2)n1` [Example 167] yielded a 50% effective concentration (EC50) greater than 1000 nM.

Compound `O=C1N[C@H](c2cccc(C#Cc3ccccc3)c2)[C@@H](c2nnn[nH]2)O1` [Example 168, (4R,5S)-4-(3-(Phenylethynyl)phenyl)-5-(1H-tetrazol-5-yl)oxazolidin-2-one] yielded a half-maximal effective concentration (EC50) greater than 1000 nM. The result for `Cn1nnc([C@H]2OC(=O)N[C@@H]2c2cccc(C#Cc3ccccc3)c2)n1` [Example 169, (4R,5S)-5-(2-Methyl-2H-tetrazol-5-yl)-4-(3-(phenylethynyl)phenyl)oxazolidin-2-one] reads greater than 1000 nM. The result for `O=C1N[C@H](c2cncc(C#Cc3ccccc3)c2)[C@@H](c2cc(F)cc(F)c2)O1` [Example 170] reads less than 100 nM; that for `O=C1N[C@H](c2cncc(C#Cc3cncc(F)c3)c2)[C@@H](c2cc(F)cc(F)c2)O1` [Example 171], less than 100 nM; that for `O=C1N[C@H](c2cncc(C#Cc3ccccc3)c2)[C@@H](c2ccc(F)c(F)c2)O1` [Example 172], less than 100 nM. For `O=C1N[C@H](c2cncc(C#Cc3cccnc3)c2)[C@@H](c2ccc(F)c(F)c2)O1` [Example 173], the EC50 was less than 100 nM. For `N#Cc1cccc(C#Cc2cncc([C@H]3NC(=O)O[C@@H]3c3cc(F)cc(F)c3)c2)c1` [Example 174] the value was greater than 1000 nM; for `O=C1N[C@H](c2cncc(C#Cc3cncc(F)c3)c2)[C@@H](c2ccc(F)c(F)c2)O1` [Example 175], less than 100 nM; for `N#Cc1cccc(C#Cc2cncc([C@H]3NC(=O)O[C@@H]3c3ccc(F)c(F)c3)c2)c1` [Example 176], < 100 nM and 5.2 nM. The result for `O=C1N[C@H](c2cncc(C#Cc3ccccn3)c2)[C@@H](c2cc(F)cc(F)c2)O1` [Example 177] reads greater than 1000 nM; that for `O=C1N[C@H](c2cncc(C#Cc3ccccn3)c2)[C@@H](c2ccc(F)c(F)c2)O1` [Example 178], 100 to 1000 nM and 117 nM. Turning to `O=C1N[C@H](c2cncc(C#Cc3ccccc3)c2)[C@@H](c2ccc(F)cc2F)O1` [Example 179], the EC50 is less than 100 nM.

As for `N#Cc1cccc(C#Cc2cncc([C@H]3NC(=O)O[C@@H]3c3ccc(F)cc3F)c2)c1` [Example 180], the half-maximal effective concentration (EC50) was 100 to 1000 nM and 259 nM. For `O=C1N[C@H](c2cncc(C#Cc3cccnc3)c2)[C@@H](c2cc(F)cc(F)c2)O1` [Example 181], the half-maximal effective concentration (EC50) was 100 to 1000 nM and 279 nM. For `O=C1N[C@H](c2cncc(C#Cc3cncc(F)c3)c2)[C@@H](c2ccc(F)cc2F)O1` [Example 182] the value was less than 100 nM; for `O=C1N[C@H](c2cncc(C#Cc3ccccn3)c2)[C@@H](c2ccc(F)cc2F)O1` [Example 183], less than 100 nM.

For `O=C1N[C@H](c2cncc(C#Cc3cccnc3)c2)[C@@H](c2ccc(F)cc2F)O1` [Example 184], the concentration giving a half-maximal response (EC50) was less than 100 nM. The result for `O=C1N[C@H](c2cncc(C#Cc3cccnc3)c2)[C@@H](c2cc(F)ccc2F)O1` [Example 186] reads less than 100 nM; that for `O=C1N[C@H](c2cncc(C#Cc3cncc(F)c3)c2)[C@@H](c2cc(F)ccc2F)O1` [Example 187], less than 100 nM; that for `N#Cc1cccc(C#Cc2cncc([C@H]3NC(=O)O[C@@H]3c3cc(F)ccc3F)c2)c1` [Example 188], greater than 1000 nM. For `O=C1N[C@H](c2cncc(C#Cc3ccccn3)c2)[C@@H](c2cc(F)ccc2F)O1` [Example 189] the value was greater than 1000 nM; for `N#Cc1cccc(C#Cc2cncc([C@@H]3NC(=O)O[C@H]3c3cc(F)cc(F)c3)c2)c1` [Example 190], greater than 1000 nM. In the case of `O=C1N[C@@H](c2cncc(C#Cc3ccccn3)c2)[C@H](c2cc(F)cc(F)c2)O1` [Example 191], the EC50 is greater than 1000 nM. Regarding `COc1cccc([C@H]2OC(=O)N[C@@H]2c2cccc(C#Cc3cc(F)ccn3)c2)c1` [Example 193], the concentration giving a half-maximal response (EC50) was less than 100 nM. For `COc1cccc([C@H]2OC(=O)N[C@@H]2c2cccc(C#Cc3ccc(F)cn3)c2)c1` [Example 195] the value was greater than 1000 nM; for `COc1cccc([C@H]2OC(=O)N[C@@H]2c2cccc(C#Cc3ncccc3F)c2)c1` [Example 196], less than 100 nM; for `COc1cccc([C@H]2OC(=O)N[C@@H]2c2cccc(C#Cc3cnc4cc[nH]c4c3)c2)c1` [Example 197], greater than 1000 nM. The compound `O=C1N[C@H](c2cncc(C#Cc3ccccc3)c2)[C@@H](c2cccnc2)O1` [Example 198] gave a concentration for a half-maximal effect (EC50) of less than 100 nM. In the case of `O=C1N[C@@H](c2cncc(C#Cc3ccccc3)c2)[C@H](c2cccnc2)O1` [Example 199], the EC50 is greater than 1000 nM.

The compound `COc1cccc([C@H]2OC(=O)N[C@@H]2c2cccc(C#Cc3ccnnc3)c2)c1` [Example 200] returned an EC50 greater than 1000 nM. Consider `O=C1N[C@H](c2cncc(C#Cc3cncc(F)c3)c2)[C@@H](c2cccnc2)O1` [Example 201], for which the EC50 was 100 to 1000 nM.
